Test results taken from patent US20250345459A1, “COMPOUND OR SALT THEREOF, LIPID COMPOSITION, PHARMACEUTICAL COMPOSITION, AND DELIVERY CARRIER” (FUJIFILM Corporation, priority 2023, published 2025).

Key:
[1] = tested on: EPO mRNA; experiment: mRNA encapsulation rate of mRNA lipid nanoparticles; assay type: physicochemical
Method: (§1) The compounds described in Table 1, the neutral lipid, cholesterol (product name: Cholesterol HP; NIPPON FINE CHEMICAL CO., LTD.), and 1,2-dimyristoyl-rac-glycero-3-(methylpolyoxyethylene 2000) (hereinafter, called DMG-PEG2000) (product name: SUNBRIGHT® GM-020; NOF corporation) were dissolved in ethanol at a molar ratio of ionized lipid:neutral lipid:cholesterol:DMG-PEG2000=50:10:38.5:1.5 mol % such that the total lipid concentration was 12.5 mmol/L, to obtain an oil phase.
(§2) As the neutral lipid, 1,2-distearoyl-sn-glycero-3-phosphocholine (product name: COATSOME® MC-8080; NOF corporation) (hereinafter, DSPC), or L-α-dioleoylphosphatidylethanolamine (hereinafter, DOPE) (product name: COATSOME® MC-8181; NOF corporation) was used.
(§3) EPO mRNA (product name: CleanCap EPO mRNA (5 moU); TriLink) was diluted with 50 mmol/L citrate buffer having a pH 4.0 such that the weight ratio of total lipid concentration to mRNA concentration is about 20:1 to 64:1, thereby obtaining a water phase. Then, the water phase and the oil phase were mixed together using NanoAssemblr (Precision NanoSystems) such that the volume ratio of water phase:oil phase was 3:1. The mixed solution was diluted 2-fold with any of phosphate buffered physiological saline (PBS), water, or a 20 mmol/L Tris buffer solution (pH 7.4) to obtain a dispersion liquid of mRNA lipid nanoparticles. The dispersion liquid was dialyzed with 20 mmol/L Tris buffer solution (pH 7.4) containing 8% sucrose using a dialysis cassette (Slide-A-Lyzer G2, MWCO: 10 kD, Thermo Fisher Scientific) to remove ethanol, thereby obtaining EPO mRNA-encapsulating lipid nanoparticles.
EPO mRNA was diluted with MilliQ water to prepare a diluted sample in 2-fold dilution series from 100 µg/mL to […], and a calibration curve solution was prepared. 50 μL of the calibration curve solution or the mRNA lipid nanoparticles was mixed with 450 μL of methanol to prepare a measurement solution.
The absorbance of each measurement solution at 260 nm and 330 nm was measured using a UV plate reader (Multiskan Go, Thermo Fisher Scientific), the absorbance at 330 nm was subtracted from the absorbance at 260 nm, and the result was defined as the absorbance of each measurement solution. The total […] nucleic acid concentration was calculated from the calibration curve using the absorbance of each sample measurement solution.
The concentration of the outer water phase nucleic acid was quantified by a standard addition method using a QuanT-iT RiboGreen RNA Assay Kit (Thermo Fisher Scientific). First, a 20× TE buffer included in the above kit was diluted with water, thereby obtaining a 1×TE buffer. TE represents Tris/EDTA (ethylenediaminetetraacetic acid). EPO mRNA was diluted with a TE buffer such that the final concentration was 0 to 400 ng/mL to prepare a nucleic acid diluted series. 10 μL of mRNA lipid nanoparticles diluted 5-fold with TE buffer and 90 µL of a nucleic acid dilution series were mixed in a 96-well plate, 100 μL of a Ribogreen reagent diluted 200-fold with TE buffer was added to each well, and then fluorescence (excitation wavelength: 485 nm, fluorescence wavelength: 535 nm) was measured using a fluorescence plate reader (Infinite 200 Pro M nano+, TECAN). From the obtained results, the outer water phase nucleic acid concentration of each measurement solution was calculated according to the standard addition method.
By using the quantification results of the total mRNA concentration and the mRNA concentration in the outer water phase that were obtained through the above steps, the mRNA encapsulation rate of the mRNA lipid nanoparticles was calculated according to the following Equation. […]

[2] = tested on: ICR mice; experiment: EPO protein expression in mice after intravenous EPO mRNA lipid nanoparticles; assay type: in vivo; settings: mRNA 0.1 mg/kg, plasma 6 hours after administration
Method: as §1, §2, §3
The dispersion liquid of mRNA lipid nanoparticles prepared in above <Preparation of EPO mRNA-encapsulating lipid nanoparticles> was intravenously administered to ICR mice at a mRNA dosage of 0.1 mg/kg. 6 hours after the administration, blood was collected from the caudal vena cava, thereby obtaining plasma. The human EPO […] was quantified by using the obtained blood plasma and Erythropoietin (EPO) Human Elisa Kit (Abcam.plc). The quantitative value is described as a relative amount of EPO protein in a case where Comparative Example 1 is 1.

[3] = Particle size of EPO mRNA-encapsulating lipid nanoparticles; assay type: physicochemical
Method: as §1, §2, §3
The particle size of the mRNA-encapsulating lipid nanoparticles was measured by 5-fold diluting the dispersion liquid of lipid nanoparticle with phosphate buffered physiological saline (PBS) using a particle size measurement device NanoSaqla (Otsuka Electronics Co., Ltd.).

[4] = LNP with neutral lipid DSPC, mixed solution PBS, Lipid/Nucleic acid (wt/wt) 20
[5] = neutral lipid DSPC, Lipid/Nucleic acid (wt/wt) 20, Comparative Example 1 is 1
[6] = LNP with neutral lipid DOPE, mixed solution PBS, Lipid/Nucleic acid (wt/wt) 64
[7] = neutral lipid DOPE, Lipid/Nucleic acid (wt/wt) 64, Comparative Example 1 is 1
[8] = LNP with neutral lipid DSPC, mixed solution 20 mM Tris, Lipid/Nucleic acid (wt/wt) 20
[9] = LNP with neutral lipid DSPC, mixed solution Water, Lipid/Nucleic acid (wt/wt) 20

## CCCCCCCCN(CCCCCCCCCC(=O)OCC(CCCCCC)CCCCCC)C(=O)OCCN(CCOC(=O)CCCCCCC)CCN(CC)CC [Comparative Example 1, 2-hexyloctyl 3-ethyl-6-(2-(octanoyloxy)ethyl)-11-octyl-10-oxo-9-oxa-3,6,11-triazahenicosan-21-oate, reference compound]
[1]; [4]
  Nucleic acid encapsulation rate (%): 62%
[2]; [5]
  Relative amount of EPO protein (to Comparative Example 1): 1.00
[3]; [4]
  Particle size (nm): 206 nm

## CCCCCCCCN(CCCCCCCC)C(=O)OCCN(CCOC(=O)N(CCCCCCCC)CCCCCCCC)CCN(CC)CC [Example 1, ((2-(diethylamino)ethyl)azanediyl)bis(ethan-2,1-diyl)bis(dioctylcarbamate)]
[1]; [6]
  Nucleic acid encapsulation rate (%): >99%
[2]; [7]
  Relative amount of EPO protein (to Comparative Example 1): 21.60
[3]; [6]
  Particle size (nm): 88.6 nm

## CCCCCCCCN(CCCCC(=O)OCC(CCCCCC)CCCCCC)C(=O)OCCN(CCOC(=O)N(CCCCCCCC)CCCCC(=O)OCC(CCCCCC)CCCCCC)CCN(CC)CC [Example 2, bis(2-hexyloctyl) 11-(2-(diethylamino)ethyl)-6,16-dioctyl-7,15-dioxo-8,14-dioxa-6,11,16-triazahenicosanedioate]
[1]; [6]
  Nucleic acid encapsulation rate (%): 99%
[1]; [4]
  Nucleic acid encapsulation rate (%): 94%
[2]; [7]
  Relative amount of EPO protein (to Comparative Example 1): 24.57
[2]; [5]
  Relative amount of EPO protein (to Comparative Example 1): 6.70
[3]; [6]
  Particle size (nm): 95.6 nm
[3]; [4]
  Particle size (nm): 82 nm

## CCCCCCCCN(CCCCC(=O)OCC(CCCCC)CCCCC)C(=O)OCCN(CCOC(=O)N(CCCCCCCC)CCCCC(=O)OCC(CCCCC)CCCCC)CCN(CC)CC [Example 3, Bis(2-pentylheptyl) 11-(2-(diethylamino)ethyl)-6,16-dioctyl-7,15-dioxo-8,14-dioxa-6,11,16-triazahenicosanedioate]
[1]; [6]
  Nucleic acid encapsulation rate (%): 99%
[1]; [4]
  Nucleic acid encapsulation rate (%): 94%
[2]; [7]
  Relative amount of EPO protein (to Comparative Example 1): 13.55
[2]; [5]
  Relative amount of EPO protein (to Comparative Example 1): 6.15
[3]; [6]
  Particle size (nm): 94.5 nm
[3]; [4]
  Particle size (nm): 78 nm

## CCCCCCN(CCCCC(=O)OCC(CCCCC)CCCCC)C(=O)OCCN(CCOC(=O)N(CCCCCC)CCCCC(=O)OCC(CCCCC)CCCCC)CCN(CC)CC [Example 4, bis(2-pentylheptyl) 11-(2-(diethylamino)ethyl)-6,16-dihexyl-7,15-dioxo-8,14-dioxa-6,11,16-triazahenicosanedioate]
[1]; [6]
  Nucleic acid encapsulation rate (%): >99%
[1]; [8]
  Nucleic acid encapsulation rate (%): 91%
[1]; [4]
  Nucleic acid encapsulation rate (%): 92%
[1]; [9]
  Nucleic acid encapsulation rate (%): 91%
[2]; [7]
  Relative amount of EPO protein (to Comparative Example 1): 13.62
[2]; [5]
  Relative amount of EPO protein (to Comparative Example 1): 12.27
[3]; [6]
  Particle size (nm): 109.5 nm
[3]; [8]
  Particle size (nm): 96 nm
[3]; [4]
  Particle size (nm): 94 nm
[3]; [9]
  Particle size (nm): 93 nm

## CCCCCCC(CCCCCC)COC(=O)CCCCN(CCCCCC)C(=O)OCCN(CCOC(=O)N(CCCCCC)CCCCC(=O)OCC(CCCCCC)CCCCCC)CCN(CC)CC [Example 5, Bis(2-hexyloctyl) 11-(2-(diethylamino)ethyl)-6,16-dihexyl-7,15-dioxo-8,14-dioxa-6,11,16-triazahenicosanedioate]
[1]; [6]
  Nucleic acid encapsulation rate (%): 99%
[1]; [4]
  Nucleic acid encapsulation rate (%): 93%
[2]; [7]
  Relative amount of EPO protein (to Comparative Example 1): 11.74
[2]; [5]
  Relative amount of EPO protein (to Comparative Example 1): 9.14
[3]; [6]
  Particle size (nm): 106.8 nm
[3]; [4]
  Particle size (nm): 88 nm

## CCCCCCC(CCCC)COC(=O)CCCCN(CCCCCC)C(=O)OCCN(CCOC(=O)N(CCCCCC)CCCCC(=O)OCC(CCCC)CCCCCC)CCN(CC)CC (centres unmarked) [Example 17, Bis(2-butyloctyl) 11-(2-(diethylamino)ethyl)-6,16-dihexyl-7,15-dioxo-8,14-dioxa-6,11,16-triazahenicosanedioate]
[1]; [4]
  Nucleic acid encapsulation rate (%): 80%
[2]; [5]
  Relative amount of EPO protein (to Comparative Example 1): 5.76
[3]; [4]
  Particle size (nm): 165 nm

## CCCCCCCCCCCC(=O)OCCN(CCOC(=O)CCCCCCCCCCC)C(=O)OCCN(CCOC(=O)N(CCOC(=O)CCCCCCCCCCC)CCOC(=O)CCCCCCCCCCC)CCN(CC)CC [Example 20, 2-(2-(2-(bis(2-dodecanoyloxyethyl)carbamoyloxy)ethyl-(2-(diethylamino)ethyl)amino)ethoxycarbonyl-(2-dodecanoyloxyethyl)amino)ethyl dodecanoate]
[1]; [4]
  Nucleic acid encapsulation rate (%): 82%
[2]; [5]
  Relative amount of EPO protein (to Comparative Example 1): 1.63
[3]; [4]
  Particle size (nm): 151 nm

## CCCCCCC(CCCCCC)COC(=O)CCCCN(CCCC)C(=O)OCCN(CCOC(=O)N(CCCC)CCCCC(=O)OCC(CCCCCC)CCCCCC)CCN(CC)CC [Example 23, Bis(2-hexyloctyl) 6,16-dibutyl-11-(2-(diethylamino)ethyl)-7,15-dioxo-8,14-dioxa-6,11,16-triazahenicosanedioate]
[1]; [4]
  Nucleic acid encapsulation rate (%): 79%
[2]; [5]
  Relative amount of EPO protein (to Comparative Example 1): 1.61
[3]; [4]
  Particle size (nm): 180 nm

## CCCCCCC(CCCCCC)COC(=O)CCCCN(CCCC)C(=O)OCCN(CCCN(CC)CC)CCOC(=O)N(CCCC)CCCCC(=O)OCC(CCCCCC)CCCCCC [Example 24, Bis(2-hexyloctyl) 6,16-dibutyl-11-(3-(diethylamino)propyl)-7,15-dioxo-8,14-dioxa-6,11,16-triazahenicosanedioate]
[1]; [4]
  Nucleic acid encapsulation rate (%): 92%
[2]; [5]
  Relative amount of EPO protein (to Comparative Example 1): 1.48
[3]; [4]
  Particle size (nm): 197 nm

## CCCCCCN(CCCCCC(=O)OCC(CCCCC)CCCCC)C(=O)OCCN(CCOC(=O)N(CCCCCC)CCCCCC(=O)OCC(CCCCC)CCCCC)CCN(CC)CC [Example 25, Bis(2-pentylheptyl) 12-(2-(diethylamino)ethyl)-7,17-dihexyl-8,16-dioxo-9,15-dioxa-7,12,17-triazatricosanedioate]
[1]; [4]
  Nucleic acid encapsulation rate (%): 78%
[2]; [5]
  Relative amount of EPO protein (to Comparative Example 1): 3.56
[3]; [4]
  Particle size (nm): 167 nm

## CCCCCCCCCCCCOC(=O)CN(CC(=O)OCCCCCCCCCCCC)C(=O)OCCN(CCOC(=O)N(CC(=O)OCCCCCCCCCCCC)CC(=O)OCCCCCCCCCCCC)CCN(CC)CC [Example 32, didodecyl 8-(2-(diethylamino)ethyl)-3,13-bis(2-(dodecyloxy)-2-oxoethyl)-4,12-dioxo-5,11-dioxa-3,8,13-triazapentadecanedioate]
[1]; [4]
  Nucleic acid encapsulation rate (%): 60%
[3]; [4]
  Particle size (nm): 203 nm

## CCCCCCCCCCCCCOC(=O)CN(CC(=O)OCCCCCCCCCCCCC)C(=O)OCCN(CCOC(=O)N(CC(=O)OCCCCCCCCCCCCC)CC(=O)OCCCCCCCCCCCCC)CCN(CC)CC [Example 34, Ditridecyl 8-(2-(diethylamino)ethyl)-4,12-dioxo-3,13-bis(2-oxo-2-(tridecyloxy)ethyl)-5,11-dioxa-3,8,13-triazapentadecanedioate]
[1]; [4]
  Nucleic acid encapsulation rate (%): 33%
[3]; [4]
  Particle size (nm): 332 nm
